What was measured:
Format in all cases: functional
[1] = system: U-251; experiment: Growth inhibition of human U251 cells assessed as cell growth at 10^-6 M by sulforhodamine B assay; details: read-out: Activity
[2] = system: MDA-MB-468; experiment: Growth inhibition of human MDA-MB-468 cells assessed as cell growth at 10^-7 M by sulforhodamine B assay; details: read-out: Activity
[3] = system: MCF7; experiment: Growth inhibition of human MCF7 cells assessed as cell growth at 10^-6 M by sulforhodamine B assay; details: read-out: Activity
[4] = system: HOP-92; experiment: Growth inhibition of human HOP92 cells assessed as cell growth at 10^-8 M by sulforhodamine B assay; details: read-out: Activity
[5] = system: RPMI-8226; experiment: Growth inhibition of human RPMI8226 cells assessed as cell growth at 10^-7 M by sulforhodamine B assay; details: read-out: Activity
[6] = system: NCI-H226; experiment: Growth inhibition of human NCI-H226 cells assessed as cell growth at 10^-8 M by sulforhodamine B assay; details: read-out: Activity
[7] = system: PC-3; experiment: Growth inhibition of human PC3 cells by sulforhodamine B assay
[8] = system: UACC-62; experiment: Growth inhibition of human UACC62 cells by sulforhodamine B assay
[9] = system: U-251; experiment: Growth inhibition of human U251 cells assessed as cell growth at 10^-4 M by sulforhodamine B assay; details: read-out: Activity
[10] = Growth inhibition of human NCI-ADR-RES cells assessed as cell growth at 10^-7 M by sulforhodamine B assay; details: read-out: Activity
[11] = system: ACHN; experiment: Growth inhibition of human ACHN cells assessed as cell growth at 10^-4 M by sulforhodamine B assay; details: read-out: Activity
[12] = system: SN12C; experiment: Growth inhibition of human SN12C cells assessed as cell growth at 10^-8 M by sulforhodamine B assay; details: read-out: Activity
[13] = system: SN12C; experiment: Growth inhibition of human SN12C cells assessed as cell growth at 10^-6 M by sulforhodamine B assay; details: read-out: Activity
[14] = system: IGROV-1; experiment: Growth inhibition of human IGROV1 cells assessed as cell growth at 10^-8 M by sulforhodamine B assay; details: read-out: Activity
[15] = system: UACC-62; experiment: Growth inhibition of human UACC62 cells assessed as cell growth at 10^-6 M by sulforhodamine B assay; details: read-out: Activity
[16] = system: NCI-H226; experiment: Growth inhibition of human NCI-H226 cells assessed as cell growth at 10^-4 M by sulforhodamine B assay; details: read-out: Activity
[17] = system: SK-MEL-28; experiment: Growth inhibition of human SK-MEL-28 cells assessed as cell growth at 10^-8 M by sulforhodamine B assay; details: read-out: Activity
[18] = system: MOLT-4; experiment: Growth inhibition of human MOLT4 cells by sulforhodamine B assay
[19] = system: SF-268; experiment: Growth inhibition of human SF268 cells assessed as cell growth at 10^-6 M by sulforhodamine B assay; details: read-out: Activity
[20] = system: LOX IMVI; experiment: Growth inhibition of human LOXIMVI cells by sulforhodamine B assay
[21] = system: MCF7; experiment: Growth inhibition of human MCF7 cells assessed as cell growth at 10^-8 M by sulforhodamine B assay; details: read-out: Activity
[22] = system: MDA-MB-231; experiment: Growth inhibition of human MDA-MB-231 cells assessed as cell growth at 10^-6 M by sulforhodamine B assay; details: read-out: Activity
[23] = system: NCI-H522; experiment: Growth inhibition of human NCI-H522 cells assessed as cell growth at 10^-6 M by sulforhodamine B assay; details: read-out: Activity
[24] = system: OVCAR-8; experiment: Growth inhibition of human OVCAR8 cells assessed as cell growth at 10^-7 M by sulforhodamine B assay; details: read-out: Activity
[25] = system: T47D; experiment: Growth inhibition of human T47D cells assessed as cell growth at 10^-7 M by sulforhodamine B assay; details: read-out: Activity
[26] = system: M14; experiment: Growth inhibition of human M14 cells assessed as cell growth at 10^-7 M by sulforhodamine B assay; details: read-out: Activity
[27] = system: SK-MEL-5; experiment: Growth inhibition of human SK-MEL-5 cells by sulforhodamine B assay
[28] = system: UO-31; experiment: Growth inhibition of human UO31 cells by sulforhodamine B assay
[29] = Growth inhibition of human NCI-ADR-RES cells assessed as cell growth at 10^-8 M by sulforhodamine B assay; details: read-out: Activity
[30] = system: SF-268; experiment: Growth inhibition of human SF268 cells assessed as cell growth at 10^-4 M by sulforhodamine B assay; details: read-out: Activity
[31] = system: NCI-H522; experiment: Growth inhibition of human NCI-H522 cells by sulforhodamine B assay
[32] = system: SF-295; experiment: Growth inhibition of human SF295 cells by sulforhodamine B assay
[33] = system: CAKI-1; experiment: Growth inhibition of human CAKI-1 cells assessed as cell growth at 10^-6 M by sulforhodamine B assay; details: read-out: Activity
[34] = system: SNB-75; experiment: Growth inhibition of human SNB75 cells assessed as cell growth at 10^-7 M by sulforhodamine B assay; details: read-out: Activity
[35] = system: NCI-H460; experiment: Growth inhibition of human NCI-H460 cells by sulforhodamine B assay
[36] = system: NCI-H23; experiment: Growth inhibition of human NCI-H23 cells by sulforhodamine B assay
[37] = system: TK-10; experiment: Growth inhibition of human TK10 cells assessed as cell growth at 10^-6 M by sulforhodamine B assay; details: read-out: Activity
[38] = system: PC-3; experiment: Growth inhibition of human PC3 cells assessed as cell growth at 10^-4 M by sulforhodamine B assay; details: read-out: Activity
[39] = read-out: LC50 (the source's name)
[40] = read-out: pLC50 (the source's name) (converted)

Question: What does the source list for `C/C=C(/C)C(=O)O[C@@H]1CC(C)(C)C[C@H]2C3=CC[C@@H]4[C@@]5(C)CCC(=O)C(C)(C)[C@@H]5CC[C@@]4(C)[C@]3(C)CC[C@@]12C(=O)O` [LANTADENE A]?
Answer: growth at 1 µM [1]: 90%; growth at 0.1 µM [2]: 83%; growth at 1 µM [3]: 87%; growth at 0.01 µM [4]: 87%; growth at 0.1 µM [5]: 91%; growth at 0.01 µM [6]: 85%; GI50 ([7]; read-out: GI50): 2.53 µM; CC50 [7, 39]: > 100 µM; TGI ([7]; read-out: TGI): > 100 µM; GI50 ([7]; read-out: pGI50 (converted)): 2.51 µM; CC50 [7, 40]: > 100 µM; TGI ([7]; read-out: pTGI (converted)): > 100 µM; GI50 ([8]; read-out: GI50): 1.73 µM; CC50 [8, 39]: 43 µM; TGI ([8]; read-out: TGI): 6.56 µM; GI50 ([8]; read-out: pGI50 (converted)): 1.74 µM; CC50 [8, 40]: 42.7 µM; TGI ([8]; read-out: pTGI (converted)): 6.61 µM; growth at 100 µM [9]: 6%; growth at 0.1 µM [10]: 104%; growth at 100 µM [11]: 16%; growth at 0.01 µM [12]: 97%; growth at 1 µM [13]: 85%; growth at 0.01 µM [14]: 108%; growth at 1 µM [15]: 70%; growth at 100 µM [16]: 20%; growth at 0.01 µM [17]: 97%; GI50 ([18]; read-out: GI50): 3.34 µM; CC50 [18, 39]: > 100 µM; TGI ([18]; read-out: TGI): > 100 µM; GI50 ([18]; read-out: pGI50 (converted)): 3.31 µM; CC50 [18, 40]: > 100 µM; TGI ([18]; read-out: pTGI (converted)): > 100 µM; growth at 1 µM [19]: 98%; GI50 ([20]; read-out: GI50): 7.8 µM; CC50 [20, 39]: > 100 µM; TGI ([20]; read-out: TGI): > 100 µM; GI50 ([20]; read-out: pGI50 (converted)): 7.76 µM; CC50 [20, 40]: > 100 µM; TGI ([20]; read-out: pTGI (converted)): > 100 µM; growth at 0.01 µM [21]: 94%; growth at 1 µM [22]: 92%; growth at 1 µM [23]: 94%; growth at 0.1 µM [24]: 98%; growth at 0.1 µM [25]: 99%; growth at 0.1 µM [26]: 91%; GI50 ([27]; read-out: GI50): 1.22 µM; CC50 [27, 39]: > 100 µM; TGI ([27]; read-out: TGI): 4.3 µM; GI50 ([27]; read-out: pGI50 (converted)): 1.23 µM; CC50 [27, 40]: > 100 µM; TGI ([27]; read-out: pTGI (converted)): 4.27 µM; GI50 ([28]; read-out: GI50): 3.44 µM; CC50 [28, 39]: > 100 µM; TGI ([28]; read-out: TGI): > 100 µM; GI50 ([28]; read-out: pGI50 (converted)): 3.47 µM; CC50 [28, 40]: > 100 µM; TGI ([28]; read-out: pTGI (converted)): > 100 µM; growth at 0.01 µM [29]: 104%; growth at 100 µM [30]: 34%; GI50 ([31]; read-out: GI50): 3.25 µM; CC50 [31, 39]: > 100 µM; TGI ([31]; read-out: TGI): 44.1 µM; GI50 ([31]; read-out: pGI50 (converted)): 3.24 µM; CC50 [31, 40]: > 100 µM; TGI ([31]; read-out: pTGI (converted)): 43.7 µM; GI50 ([32]; read-out: GI50): 2.77 µM; CC50 [32, 39]: > 100 µM; TGI ([32]; read-out: TGI): 15.4 µM; GI50 ([32]; read-out: pGI50 (converted)): 2.75 µM; CC50 [32, 40]: > 100 µM; TGI ([32]; read-out: pTGI (converted)): 15.5 µM; growth at 1 µM [33]: 88%; growth at 0.1 µM [34]: 89%; GI50 ([35]; read-out: GI50): 3.59 µM; LC50 ([35]; read-out: LC50): > 100 µM; TGI ([35]; read-out: TGI): > 100 µM; GI50 ([35]; read-out: pGI50 (converted)): 3.63 µM; LC50 ([35]; read-out: pLC50 (converted)): > 100 µM; TGI ([35]; read-out: pTGI (converted)): > 100 µM; GI50 ([36]; read-out: GI50): 4.55 µM; CC50 [36, 39]: > 100 µM; TGI ([36]; read-out: TGI): > 100 µM; GI50 ([36]; read-out: pGI50 (converted)): 4.57 µM; CC50 [36, 40]: > 100 µM; TGI ([36]; read-out: pTGI (converted)): > 100 µM; growth at 1 µM [37]: 101%; growth at 100 µM [38]: 13%

From ChEMBL document CHEMBL2413072, “Synthesis and in vitro anticancer studies of novel C-2 arylidene congeners of lantadenes” (2013)
